In patent US20190119200A1, “TERTIARY AMIDES AND METHOD OF USE” (AbbVie Inc., priority 2016, published 2019):

How the values were obtained:
Format in all cases: cell-based
LPAR1 [1] = target: T1, LPAR1 (Homo sapiens, UniProt Q92633); assay: LPAR1 FLIPR Assay; details: U2OS cells stably expressing LPAR1, LPA (EC80), Calcium 6 FLIPR dye; for Emax: read-out: Maximum Inhibition
T1 construct: host or cells: U2OS
Summary of the method: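 Calcium flux read-out (515-575 nm, FLIPR) in LPAR1-expressing U2OS cells after LPA challenge at EC80, given 3 min after compound addition; cells carried Calcium 6 dye loaded 2 h at 37° C. Eleven-point 3-fold dilutions were fitted with a four-parameter Hill equation for IC50.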

LPAR1 [2] = target: T1, LPAR1; assay: IP-One HTRF Assay; details: U2OS cells stably expressing LPAR1, LPA stimulation, IP-One Tb HTRF kit; for Emax: read-out: Maximum Inhibition
Summary of the method: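 U2OS cells stably expressing LPAR1 were preincubated with compound (11-point 3-fold series from 2 mM DMSO stock) for 20 min at 37 °C, then stimulated with LPA for 2 h at 37 °C. IP1 accumulation was read by IP-One HTRF (665/615 nm ratio). IC50 came from four-parameter logistic Hill fits.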

LPAR1 [3] = target: T1, LPAR1; assay: LPAR1 Arrestin Assay (arrestin reporter assay); details: U2OS cells stably expressing the LPAR1 receptor, 200 nM 18:1 LPA (EC80); for Emax: read-out: Maximum Inhibition
Protocol: One day prior to the experiment, frozen U2OS cells stably expressing the LPAR1 receptor (Life Technologies, Grand Island, N.Y., #K1519A) were thawed, centrifuged at 1,000 rpm for 5 minutes to remove DMSO, and resuspended in FreeStyle™ media (Gibco, Grand Island, N.Y.). Forty microliters of cells were plated into PDL-coated 384-well plates (Greiner Bio-One, Monroe, N.C.) at 10,000 cells/well, and then the plates were incubated overnight in humidified 5% CO2 at 37° C. Test compounds were dissolved in DMSO, and 12-point, 1:3 dilution CRCs were prepared in duplicate; daughter plates were prepared by aliquoting 0.8 μL/well of test compound dilutions into 384-well plates. On the day of the assay, the daughter plates were diluted to 6× stocks using HEPES-buffered HBSS, then 10 μL of 6× test compounds were added to the cells, and the plates were incubated at 37° C. for one hour. After this 1 hour incubation, 10 μL of a 6× stock of the LPAR1 agonist, 18:1 LPA (Avanti Polar Lipids, Alabaster, Ala.), was prepared in HEPES-buffered HBSS+0.1% fatty acid-free BSA (Sigma, St. Louis, Mo.). The 6×LPA was added to all wells for a final concentration of 200 nM, which corresponds to the 18:1 LPA EC80 in this arrestin assay. The final DMSO concentration in the assay plate was 0.1%, and the final BSA concentration was 0.02%. After addition of LPA to all wells, the assay plates were incubated in humidified 5% CO2 at 37° C. for five hours. During the incubation period, 6× dye from the LiveBLAzer™-FRET B/G with CCF4-AM kit (Life Technologies, Grand Island, N.Y.) was prepared according to manufacturers' instructions. At the end of the 5 hour compound incubation, 10 μL of 6× dye was added to each well, and the assay plate was incubated for two hours in the dark at room temperature. Throughout the assay procedure, all volume additions were performed with a Biomek® NX liquid handler (Beckman Coulter, Indianapolis, Ind.). After the 2 hour dye-load, fluorescence was measured on an EnVision® Multilabel Plate Reader (Perkin Elmer, Waltham, Mass.) with an excitation filter at 409/20 nm and emission filters at 460/40 nm and 530/30 nm. Data processing was performed as recommended by the LiveBLAzer™-FRET B/G with CCF4-AM kit manual; all test compound CRCs were performed in duplicate with n≥3.

T1 sequence (Q92633 whole entry): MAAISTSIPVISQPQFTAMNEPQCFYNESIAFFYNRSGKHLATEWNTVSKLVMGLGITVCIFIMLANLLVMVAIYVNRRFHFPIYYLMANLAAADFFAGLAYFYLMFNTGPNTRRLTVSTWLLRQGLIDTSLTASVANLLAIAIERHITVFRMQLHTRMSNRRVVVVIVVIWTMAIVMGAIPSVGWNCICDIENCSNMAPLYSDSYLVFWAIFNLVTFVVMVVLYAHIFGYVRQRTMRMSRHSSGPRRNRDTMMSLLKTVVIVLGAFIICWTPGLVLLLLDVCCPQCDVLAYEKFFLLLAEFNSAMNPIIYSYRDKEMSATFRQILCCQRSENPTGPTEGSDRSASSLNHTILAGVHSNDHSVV

SMILES	IC50 (LPAR1 [1]) [nM]	Emax (LPAR1 [1]) [%]	IC50 (LPAR1 [2]) [nM]	Emax (LPAR1 [2]) [%]	IC50 (LPAR1 [3]) [nM]	Emax (LPAR1 [3]) [%]
COc1ccc(C2(C(=O)N(CCCc3ccccc3)CCSCC(=O)O)CC2)cc1 [Example 115, [(2-{[1-(4-methoxyphenyl)cyclopropane-1-carbonyl](3-phenylpropyl)amino}ethyl)sulfanyl]acetic Acid]	30	78	2910	71	1080	104
COc1cc(C(=O)N(CCCc2ccccc2Cl)CCOCC(=O)O)cc(OC)c1C [Example 131, (2-{[3-(2-chlorophenyl)propyl](3,5-dimethoxy-4-methylbenzoyl)amino}ethoxy)acetic Acid]	21	86	1480	101	2140	120
COc1cc(C(=O)N(CCCc2ccccc2)CCOCC(=O)NS(C)(=O)=O)cc(OC)c1C [Example 157, N-(2-{2-[(methanesulfonyl)amino]-2-oxoethoxy}ethyl)-3,5-dimethoxy-4-methyl-N-(3-phenylpropyl)benzamide]	16	92	920	75	108	128
COc1cc(OC)cc(C(=O)N(CCCCC(=O)O)CCCc2ccccc2)c1 [Example 7, 5-[(3,5-dimethoxybenzoyl)(3-phenylpropyl)amino]pentanoic Acid]	32	82	1750	75	713	108
COc1cc(C(=O)N(CCCCC(=O)O)CCCc2ccccc2F)cc(OC)c1C [Example 32, 5-{(3,5-dimethoxy-4-methylbenzoyl)[3-(2-fluorophenyl)propyl]amino}pentanoic Acid]	18	98	321	88	76	112
COc1cc(C(=O)N(CCCCC(=O)O)CCCc2ccco2)cc(OC)c1C [Example 173, 5-{(3,5-dimethoxy-4-methylbenzoyl)[3-(furan-2-yl)propyl]amino}pentanoic Acid]	29	74	523	75	295	122
COc1cc(C(=O)N(CCCc2ccccc2)CCCC(C)(O)C(=O)O)cc(OC)c1C (stereo not drawn) [Example 155, 5-[(3,5-dimethoxy-4-methylbenzoyl)(3-phenylpropyl)amino]-2-hydroxy-2-methylpentanoic Acid]	27	90	663	83	401	125
COc1cc(C(=O)N(CCCCC(=O)O)CCCc2cccc(Cl)c2)cc(OC)c1C [Example 38, 5-{[3-(3-chlorophenyl)propyl](3,5-dimethoxy-4-methylbenzoyl)amino}pentanoic Acid]	14	99	194	90	26	114
COc1cc(C(=O)N(CCCc2ccccc2)CCOCP(=O)(O)O)cc(OC)c1C [Example 50, ({2-[(3,5-dimethoxy-4-methylbenzoyl)(3-phenylpropyl)amino]ethoxy}methyl)phosphonic Acid]	3	101	3	85	1	103
COc1cc(C(=O)N(CCCc2ccccc2F)CCSCC(=O)O)cc(OC)c1C [Example 116, [(2-{(3,5-dimethoxy-4-methylbenzoyl)[3-(2-fluorophenyl)propyl]amino}ethyl)sulfanyl]acetic Acid]	20	88	344	81	281	108
COc1ccc(C2(C(=O)N(CCCCC(=O)O)CCCc3ccccc3)CC2)cc1 [Example 8, 5-{[1-(4-methoxyphenyl)cyclopropane-1-carbonyl](3-phenylpropyl)amino}pentanoic Acid]	17	86	2250	84	691	112
COc1cc(C(=O)N(CCCCC(=O)O)CCCc2ccccc2)cc(OC)c1C(F)(F)F [Example 37, 5-{[3,5-dimethoxy-4-(trifluoromethyl)benzoyl](3-phenylpropyl)amino}pentanoic Acid]	32	96	69	79	231	122
COc1cc(C(=O)N(CCCc2cccc(F)c2)CCOCC(=O)O)cc(OC)c1C [Example 129, (2-{(3,5-dimethoxy-4-methylbenzoyl)[3-(3-fluorophenyl)propyl]amino}ethoxy)acetic Acid]	20	93	1310	96	218	124
COc1cc(C(=O)N(CCCCC(=O)O)CCCc2cccc(F)c2)cc(OC)c1C [Example 33, 5-{(3,5-dimethoxy-4-methylbenzoyl)[3-(3-fluorophenyl)propyl]amino}pentanoic Acid]	19	99	166	76	71	110
COc1cc(C(=O)N(CCCCC(=O)O)CCCc2ccccc2)cc(OC)c1Br [Example 20, 5-[(4-bromo-3,5-dimethoxybenzoyl)(3-phenylpropyl)amino]pentanoic Acid]	20	99	50	102	43	101
COc1cc(C(=O)N(CCCc2ccccc2)CCSCC(=O)O)cc(OC)c1C [Example 44, ({2-[(3,5-dimethoxy-4-methylbenzoyl)(3-phenylpropyl)amino]ethyl}sulfanyl)acetic Acid]	8	96	223	80	69	114
